In PubChem BioAssay (NCI):
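In this assay, cells in 96-well plates receive the compound at five concentrations for 48 hours. Endpoints are linearly interpolated between the surrounding concentrations. At the GI50, growth is halved. TGI denotes the concentration required for complete inhibition of growth.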

How the values were obtained:
Experiment in all cases: inhibition of tumour cell growth, NCI panel, 48 h; in the data active = GI50 below about 0.43 µM; inactive = the rest
A498 renal = tested on: A498 renal
OVCAR-5 ovarian = tested on: OVCAR-5 ovarian
ACHN renal = tested on: ACHN renal
HCT-116 colon = tested on: HCT-116 colon
NCI/ADR-RES ovarian = tested on: NCI/ADR-RES ovarian
UACC-62 melanoma = tested on: UACC-62 melanoma
OVCAR-4 ovarian = tested on: OVCAR-4 ovarian
MCF7 breast = tested on: MCF7 breast
OVCAR-8 ovarian = tested on: OVCAR-8 ovarian
RXF 393 renal = tested on: RXF 393 renal
SW-620 colon = tested on: SW-620 colon
CCRF-CEM leukemia = tested on: CCRF-CEM leukemia
SF-268 CNS = tested on: SF-268 CNS
SNB-19 CNS = tested on: SNB-19 CNS
HT29 colon = tested on: HT29 colon
786-0 renal = tested on: 786-0 renal
SF-295 CNS = tested on: SF-295 CNS
SR leukemia = tested on: SR leukemia
NCI-H226 lung = tested on: NCI-H226 lung
EKVX NSCLC = tested on: EKVX NSCLC
NCI-H460 lung = tested on: NCI-H460 lung
COLO 205 colon = tested on: COLO 205 colon
SK-MEL-2 melanoma = tested on: SK-MEL-2 melanoma
UO-31 renal = tested on: UO-31 renal
DU-145 prostate = tested on: DU-145 prostate
A549 NSCLC = tested on: A549 NSCLC
MDA-MB-435 = tested on: MDA-MB-435
U251 CNS = tested on: U251 CNS
MDA-MB-231 breast = tested on: MDA-MB-231 breast
HS 578T breast = tested on: HS 578T breast
HOP-62 NSCLC = tested on: HOP-62 NSCLC
K-562 leukemia = tested on: K-562 leukemia
MOLT-4 leukemia = tested on: MOLT-4 leukemia
KM12 colon = tested on: KM12 colon
NCI-H23 lung = tested on: NCI-H23 lung
SK-MEL-28 melanoma = tested on: SK-MEL-28 melanoma
HL-60(TB) leukemia = tested on: HL-60(TB) leukemia
HCT-15 colon = tested on: HCT-15 colon
CAKI-1 renal = tested on: CAKI-1 renal
IGROV1 ovarian = tested on: IGROV1 ovarian
M14 melanoma = tested on: M14 melanoma
RPMI-8226 leukemia = tested on: RPMI-8226 leukemia
SK-OV-3 ovarian = tested on: SK-OV-3 ovarian
SNB-75 CNS = tested on: SNB-75 CNS
MALME-3M melanoma = tested on: MALME-3M melanoma
NCI-H522 lung = tested on: NCI-H522 lung
OVCAR-3 ovarian = tested on: OVCAR-3 ovarian
TK-10 renal = tested on: TK-10 renal
SN12C renal = tested on: SN12C renal
HCC-2998 colon = tested on: HCC-2998 colon
UACC-257 melanoma = tested on: UACC-257 melanoma
SF-539 CNS = tested on: SF-539 CNS
LOX IMVI melanoma = tested on: LOX IMVI melanoma
SK-MEL-5 melanoma = tested on: SK-MEL-5 melanoma
BT-549 breast = tested on: BT-549 breast
PC-3 prostate = tested on: PC-3 prostate

COc1ccc2cc(C#Cc3ccc(-n4c(/C=C/c5cc(OC)c(OC)c(OC)c5)nc5ccccc5c4=O)c(C)c3)ccc2c1
> 100 µM: TGI (A498 renal) | TGI (OVCAR-5 ovarian) | TGI (ACHN renal) | TGI (HCT-116 colon) | TGI (NCI/ADR-RES ovarian) | TGI (UACC-62 melanoma) | TGI (OVCAR-4 ovarian) | TGI (MCF7 breast) | TGI (OVCAR-8 ovarian) | TGI (RXF 393 renal) | TGI (SW-620 colon) | TGI (CCRF-CEM leukemia) | TGI (SF-268 CNS) | TGI (SNB-19 CNS) | TGI (HT29 colon) | TGI (786-0 renal) | TGI (SF-295 CNS) | TGI (SR leukemia) | TGI (NCI-H226 lung) | TGI (EKVX NSCLC) | TGI (NCI-H460 lung) | TGI (COLO 205 colon) | TGI (SK-MEL-2 melanoma) | TGI (UO-31 renal) | TGI (DU-145 prostate) | TGI (A549 NSCLC) | TGI (MDA-MB-435) | TGI (U251 CNS) | TGI (MDA-MB-231 breast) | TGI (HS 578T breast) | TGI (HOP-62 NSCLC) | TGI (K-562 leukemia) | TGI (MOLT-4 leukemia) | TGI (KM12 colon) | TGI (NCI-H23 lung) | TGI (SK-MEL-28 melanoma) | TGI (HL-60(TB) leukemia) | TGI (HCT-15 colon) | TGI (CAKI-1 renal) | TGI (IGROV1 ovarian) | TGI (M14 melanoma) | TGI (RPMI-8226 leukemia) | TGI (SK-OV-3 ovarian) | TGI (SNB-75 CNS) | TGI (MALME-3M melanoma) | TGI (NCI-H522 lung) | TGI (OVCAR-3 ovarian) | TGI (TK-10 renal) | TGI (SN12C renal) | TGI (HCC-2998 colon) | TGI (UACC-257 melanoma) | TGI (SF-539 CNS) | TGI (LOX IMVI melanoma) | TGI (SK-MEL-5 melanoma)
active: GI50 (SR leukemia) 0.395 µM
inactive: GI50 (A498 renal) > 100 µM | GI50 (OVCAR-5 ovarian) > 100 µM | GI50 (ACHN renal) > 100 µM | GI50 (HCT-116 colon) 3.53 µM | GI50 (NCI/ADR-RES ovarian) > 100 µM | GI50 (UACC-62 melanoma) 2.19 µM | GI50 (OVCAR-4 ovarian) > 100 µM | GI50 (MCF7 breast) 63.8 µM | GI50 (OVCAR-8 ovarian) > 100 µM | GI50 (RXF 393 renal) > 100 µM | GI50 (SW-620 colon) 17.2 µM | GI50 (CCRF-CEM leukemia) > 100 µM | GI50 (SF-268 CNS) > 100 µM | GI50 (SNB-19 CNS) > 100 µM | GI50 (HT29 colon) 3.41 µM | GI50 (786-0 renal) > 100 µM | GI50 (SF-295 CNS) > 100 µM | GI50 (NCI-H226 lung) > 100 µM | GI50 (EKVX NSCLC) 24.1 µM | GI50 (NCI-H460 lung) 2.48 µM | GI50 (COLO 205 colon) 6.96 µM | GI50 (SK-MEL-2 melanoma) > 100 µM | GI50 (UO-31 renal) > 100 µM | GI50 (DU-145 prostate) > 100 µM | GI50 (A549 NSCLC) > 100 µM | GI50 (MDA-MB-435) > 100 µM | GI50 (U251 CNS) 7.4 µM | GI50 (MDA-MB-231 breast) 37 µM | GI50 (HS 578T breast) > 100 µM | GI50 (HOP-62 NSCLC) > 100 µM | GI50 (K-562 leukemia) 0.882 µM | GI50 (MOLT-4 leukemia) 4.66 µM | GI50 (KM12 colon) 4.3 µM | GI50 (NCI-H23 lung) 40.5 µM | GI50 (SK-MEL-28 melanoma) > 100 µM | GI50 (HL-60(TB) leukemia) 0.686 µM | GI50 (HCT-15 colon) 1.22 µM | GI50 (CAKI-1 renal) 4.91 µM | GI50 (IGROV1 ovarian) > 100 µM | GI50 (M14 melanoma) 12.7 µM | GI50 (RPMI-8226 leukemia) 0.821 µM | GI50 (SK-OV-3 ovarian) > 100 µM | GI50 (SNB-75 CNS) > 100 µM | GI50 (MALME-3M melanoma) 42.6 µM | GI50 (NCI-H522 lung) > 100 µM | GI50 (OVCAR-3 ovarian) 19.3 µM | GI50 (TK-10 renal) > 100 µM | GI50 (SN12C renal) > 100 µM | GI50 (HCC-2998 colon) > 100 µM | GI50 (UACC-257 melanoma) 6.24 µM | GI50 (SF-539 CNS) > 100 µM | GI50 (LOX IMVI melanoma) 5.94 µM | GI50 (SK-MEL-5 melanoma) 1.85 µM

OCCCC(O)(c1ccccc1)c1ccccc1
> 100 µM: TGI (OVCAR-5 ovarian) | TGI (ACHN renal) | TGI (NCI/ADR-RES ovarian) | TGI (UACC-62 melanoma) | TGI (OVCAR-4 ovarian) | TGI (MCF7 breast) | TGI (OVCAR-8 ovarian) | TGI (RXF 393 renal) | TGI (SW-620 colon) | TGI (CCRF-CEM leukemia) | TGI (SF-268 CNS) | TGI (SNB-19 CNS) | TGI (HT29 colon) | TGI (786-0 renal) | TGI (SF-295 CNS) | TGI (SR leukemia) | TGI (NCI-H226 lung) | TGI (EKVX NSCLC) | TGI (NCI-H460 lung) | TGI (BT-549 breast) | TGI (SK-MEL-2 melanoma) | TGI (UO-31 renal) | TGI (A549 NSCLC) | TGI (MDA-MB-435) | TGI (U251 CNS) | TGI (HS 578T breast) | TGI (HOP-62 NSCLC) | TGI (K-562 leukemia) | TGI (MOLT-4 leukemia) | TGI (KM12 colon) | TGI (NCI-H23 lung) | TGI (PC-3 prostate) | TGI (SK-MEL-28 melanoma) | TGI (HL-60(TB) leukemia) | TGI (HCT-15 colon) | TGI (IGROV1 ovarian) | TGI (M14 melanoma) | TGI (RPMI-8226 leukemia) | TGI (SK-OV-3 ovarian) | TGI (SNB-75 CNS) | TGI (MALME-3M melanoma) | TGI (NCI-H522 lung) | TGI (OVCAR-3 ovarian) | TGI (TK-10 renal) | TGI (SN12C renal) | TGI (HCC-2998 colon) | TGI (UACC-257 melanoma) | TGI (SF-539 CNS) | TGI (LOX IMVI melanoma) | TGI (SK-MEL-5 melanoma)
